Data taken from article PMC9826262, “Discovery of Benzo[d]imidazole‐6‐sulfonamides as Bromodomain and Extra‐Terminal Domain (BET) Inhibitors with Selectivity for the First Bromodomain” (Chemmedchem, 2022).
≈ marks a conversion by molar mass, not a printed value.

Key:
[1] = CYPs and UGTs dual-activity microsomal stability; assay type: in vitro ADME; details: human liver microsomes; alamethicin, NADPH and UDPGA cofactors; 37 °C, 60 min
Procedure: In this study, the CYPs and UGTs “dual‐activity” microsomal stability assay was carried out to follow the loss of the test compounds over time under CYP‐ and UGT‐mediated metabolic pathways. In detail, the compounds were added to human liver microsomes in the presence of alamethicin, NADPH and UDPGA as cofactors.[24] Alamethicin, a pore‐forming peptide, was used to activate UGTs in human liver microsomes. Testosterone was used as positive control while the negative control was prepared by incubation of the compounds without cofactors up to 60 min. The negative control is essential to detect problems such as non‐specific protein binding or heat instability.
Instrumentation and chromatographic conditions. The metabolic stability of investigated compounds was monitored using a Nexera UHPLC system (Shimadzu, Kyoto, Japan) consisting of a CBM‐20A controller, two LC‐30AD pumps, an SPD‐M20A photo diode array detector, a CTO‐20AC column oven and, a SIL‐30AC autosampler. The chromatographic analyses were accomplished on a Kinetex® Evo C18 column, 150×2.1 mm×2.6 μm (Phenomenex®, Bologna, Italy) maintained at 40 °C. The optimal mobile phase consisted of 0.1 % HCOOH/H2O v/v (A) and 0.1 % HCOOH/ACN v/v (B) delivered at constant flow rate of 0.5 mL/min ^−1. Analysis was performed in gradient elution as follows: 0–8.00 min, 5–95 % B; 8.00–10.00 min, isocratic to 95 % B; then five minutes for column re‐equilibration. Data acquisition was set in the range 190–800 nm and chromatograms were monitored at 254 nm.
In vitro drug metabolism using human liver microsomes. 25 μL of 5 mg/mL human […] microsomes (Thermo Fisher Scientific, Bremen, Germany) were pre‐incubated with 0.625 μL of 100 μg/mL alamethicin. Then 2.5 μL of sample (5 mM) with 168 μL of 100 mM phosphate buffer (pH 7.4), 4 μL of 500 mM MgCl2 were added, the mixture was incubated at 37 °C for 5 min. Optimal UGT activity can be achieved by the addition of MgCl2 and alamethicin as pore forming antibiotic. These components allow for the efficient transfer of a glucuronide product and the cofactor uridine 5′‐diphospho‐α‐D‐glucuronic acid (UDPGA) within the microsomal matrix. The reaction has started by adding 50 μL of mix NADPH 20 mM and UDP‐GlcUA 20 mM as cofactors (1 : 1 v/v) and carried out 37 °C for 60 min in a Thermomixer comfort (Eppendorf, Hamburg, Germany). The reaction was stopped by the addition of 200 μL ice‐cold acetonitrile and then samples were centrifuged at 14,000 rpm at 25 °C for 5 min (Eppendorf® microcentrifuge 5424, Hamburg, Germany). The supernatants were collected and injected in UHPLC. The control at 0 min was obtained by addition of ice‐cold acetonitrile immediately after incubation with microsomes. […]

[2] = Nephelometric solubility determination; assay type: physicochemical; details: for solubility: aqueous buffer, kinetic from dmso stock, PBS with 1 % DMSO, tested at 50 and 100 μM, room temperature, read-out: Solubility (highest concentration where no precipitate was detected)
Procedure: Solubility determination. Solubility of the compounds was determined using Nepheloskan Ascent® (Labsystems). The experiments were performed at room temperature in 96‐well plates in a final volume of 300 μL. Each compound was tested in quadruplicate at the concentrations of 50 and 100 μM in PBS with 1 % DMSO. The measurements were performed at 4 different time points (T0, 30 min, 60 min, 90 min) from the preparation of the samples. Data obtained were compared to control (PBS with 1 % DMSO) and the ratio sample/control was determined for each compound. Compounds are considered soluble if the ratio is≤3.

in vitro = details: PAMPA, pH 7.4
Procedure: Membrane permeability was estimated by the well‐validated parallel artificial membrane permeability assay (PAMPA) technique.[17, 26]
Parallel Artificial Membrane Permeability Assay (PAMPA). Donor solution (0.2 mM) was prepared by diluting 20 mM dimethyl sulfoxide (DMSO) compound stock solution using phosphate buffer (pH 7.4, 0.01 M). Filters were coated with 5 μL of a 1 % (w/v) dodecane solution of L‐α‐phosphatidylcholine. Donor solution (150 μL) was added to each well of the filter plate. To each well of the acceptor plate, 300 μL of solution (5 % DMSO in phosphate buffer) was added. […] The sandwich was incubated for 24 h at room temperature under gentle shaking. After the incubation time, the sandwich plates were separated and 250 μL of the acceptor plate was transferred to a UV quartz microtiter plate and measured by UV spectroscopy, using a Multiskan GO microplate spectrophotometer (Thermo Fisher Scientific) at 250–500 nm at a step of 5 nm. Reference solutions (250 μL) were prepared diluting the sample stock solutions to the same concentration as that with no membrane barrier.
In this equation, VR is the volume of the acceptor compartment (0.3 cm^3), VD is the donor volume (0.15 cm^3), A is the accessible filter area (0.24 cm^2), and t is the incubation time in seconds.

[3] = test system: BD1 and BD2 of BET proteins (BRD2, BRD3, BRD4 and BRDT); assay: Protein stability shift assay (ΔTm), BET bromodomains; assay type: binding; details: compound 10 μM; protein 2 μM
Procedure: (§1) The compounds were tested at 10 μM fixed dose and the pan‐BET inhibitor 1 was used as a reference compound.[22] The results obtained from this screening supported our design strategy.
(§2) Protein stability shift assay. Thermal melting experiments were carried out using an Mx3005p Real Time PCR machine (Stratagene). Proteins were buffered in 10 mM HEPES pH 7.5, 500 mM NaCl and assayed in a 96‐well plate at a final concentration of 2 μM in 20 μL volume. Compounds were added at a final concentration of 10 μM. SYPRO Orange (Molecular Probes) was added as a fluorescence probe at a dilution of 1 : 1000. Excitation and emission filters for the SYPRO‐Orange dye were set to 465 nm and 590 nm, respectively. The temperature was raised with a step of 3 °C per minute from 25 °C to 96 °C and fluorescence readings were taken at each interval. The temperature dependence of the fluorescence during the protein denaturation process was approximated by the equation yT=yF+yU-yF/1+e^ΔuGT/RT
(§3) where ΔuG(T) is the difference in unfolding free energy between the folded and unfolded state, R is the gas constant and yF and yU are the fluorescence intensity of the probe in the presence of completely folded and unfolded protein, respectively. The baselines of the denatured and native states were approximated by a linear fit. The observed temperature shifts, ΔTm obs, were recorded as the difference between the transition midpoints of sample and reference wells containing protein without ligand in the same plate and determined by non‐linear least squares fit.

[4] = test system: non‐BET bromodomain‐containing proteins (CREBBP, PB1 and PCAF); assay: Protein stability shift assay (ΔTm), non-BET bromodomains; assay type: binding; details: compound 10 μM; protein 2 μM
Procedure: as §1, §2, §3

BD1 of BRD4 = test system: BD1 of BRD4; parameters: method as in earlier work; details: ref 19b; cited from earlier work

| SMILES | ΔTm screening against BET bromodomains [3] | also measured |
| --- | --- | --- |
| Cc1cc(/N=N/c2ccc(S(=O)(=O)Nc3ccccn3)cc2)c(N)cc1O [7 a, MS436, reference compound] | – | CYPs and UGTs “dual‐activity” microsomal stability (percentage of the parent compound turnover) [1]: 7.8±0.5%; Solubility at 100 μM ([2]; 100 μM, aqueous solution with 1 % DMSO): still soluble; solubility [2]: 100 µM (≈ 38.3 µg/mL); Papp at 24 h, 0.2 mM (in vitro): 0.0103 ×10⁻⁶ cm/s |
| Cc1cc(-c2nc3ccc(S(=O)(=O)Nc4ccc(C#N)cc4)cc3[nH]2)cc(C)c1O [9 b, N ‐(4‐cyanophenyl)‐2‐(4‐hydroxy‐3,5‐dimethylphenyl)‐1H‐benzo[d]imidazole‐6‐sulfonamide] | increase in the melting temperature of all BET proteins | CYPs and UGTs “dual‐activity” microsomal stability (percentage of the parent compound turnover) [1]: 16.3±0.5%; solubility [2]: 50 µM (≈ 20.9 µg/mL); Papp at 24 h, 0.2 mM (in vitro): 0.0909 ×10⁻⁶ cm/s |
| Cc1cc(-c2nc3ccc(S(N)(=O)=O)cc3[nH]2)cc(C)c1O [9 c, 2‐(4‐hydroxy‐3,5‐dimethylphenyl)‐1H‐benzo[d]imidazole‐6‐sulfonamide] | definitely lower affinity than 9 a and 9 b | – |
| CNS(=O)(=O)c1ccc2nc(-c3cc(C)c(O)c(C)c3)[nH]c2c1 [9 d, 2‐(4‐hydroxy‐3,5‐dimethylphenyl)‐N‐methyl‐1H‐benzo[d]imidazole‐6‐sulfonamide] | definitely lower affinity than 9 a and 9 b | – |
| Cc1cc(-c2nc3ccc(S(=O)(=O)NCc4ccccn4)cc3[nH]2)cc(C)c1O [9 e, 2‐(4‐hydroxy‐3,5‐dimethylphenyl)‐N‐(pyridin‐2‐ylmethyl)‐1H‐benzo[d]imidazole‐6‐sulfonamide] | complete loss of activity | – |
| Cc1cc(-c2nc3ccc(S(=O)(=O)NCc4cccnc4)cc3[nH]2)cc(C)c1O [9 f, 2‐(4‐hydroxy‐3,5‐dimethylphenyl)‐N‐(pyridin‐3‐ylmethyl)‐1H‐benzo[d]imidazole‐6‐sulfonamide] | complete loss of activity | – |
| Cc1cc(-c2nc3ccc(S(=O)(=O)NC4CC4)cc3[nH]2)cc(C)c1O [9 g, N ‐cyclopropyl‐2‐(4‐hydroxy‐3,5‐dimethylphenyl)‐1H‐benzo[d]imidazole‐6‐sulfonamide] | partial loss of affinity toward BETs | ΔTm screening, off-target binding (BD2 of BRDT and non-BET bromodomains) [4]: strong off‐target binding |
| Cc1cc(-c2nc3ccc(S(=O)(=O)NC4CCCC4)cc3[nH]2)cc(C)c1O [9 h, N ‐cyclopentyl‐2‐(4‐hydroxy‐3,5‐dimethylphenyl)‐1H‐benzo[d]imidazole‐6‐sulfonamide] | affinity toward BETs similar to 9 a and 9 b | ΔTm screening, off-target binding (BD2 of BRDT and non-BET bromodomains) [4]: strong binding to BD2 of BRDT and other non‐BET bromodomain‐containing proteins |
| Cc1cc(-c2nc3ccc(S(=O)(=O)NC4CCCCC4)cc3[nH]2)cc(C)c1O [9 i, N ‐cyclohexyl‐2‐(4‐hydroxy‐3,5‐dimethylphenyl)‐1H‐benzo[d]imidazole‐6‐sulfonamide] | affinity toward BETs similar to 9 a and 9 b | ΔTm screening, off-target binding (BD2 of BRDT and non-BET bromodomains) [4]: strong binding to BD2 of BRDT and other non‐BET bromodomain‐containing proteins |
| Cc1cc(-c2nc3ccc(S(=O)(=O)Nc4ccccn4)cc3[nH]2)ccc1O [9 j, 2‐(4‐hydroxy‐3‐methylphenyl)‐N‐(pyridin‐2‐yl)‐1H‐benzo[d]imidazole‐6‐sulfonamide] | marked loss of activity | – |
| Cc1cc(O)cc(C)c1-c1nc2ccc(S(=O)(=O)Nc3ccccn3)cc2[nH]1 [9 k, 2‐(4‐hydroxy‐2,6‐dimethylphenyl)‐N‐(pyridin‐2‐yl)‐1H‐benzo[d]imidazole‐6‐sulfonamide] | marked loss of activity | – |
| O=S(=O)(Nc1ccccn1)c1ccc2nc(-c3ccc(O)cc3)[nH]c2c1 [9 l, 2‐(4‐hydroxyphenyl)‐N‐(pyridin‐2‐yl)‐1H‐benzo[d]imidazole‐6‐sulfonamide] | still active but significantly less selective | – |
| O=S(=O)(Nc1ccccn1)c1ccc2nc(-c3cccc(O)c3)[nH]c2c1 [9 m, 2‐(3‐hydroxyphenyl)‐N‐(pyridin‐2‐yl)‐1H‐benzo[d]imidazole‐6‐sulfonamide] | almost completely inactive | – |
| O=S(=O)(Nc1ccccn1)c1ccc2nc(-c3ccc(Cl)cc3)[nH]c2c1 [9 n, 2‐(4‐chlorophenyl)‐N‐(pyridin‐2‐yl)‐1H‐benzo[d]imidazole‐6‐sulfonamide] | almost completely inactive | – |
| O=S(=O)(Nc1ccccn1)c1ccc2nc(-c3ccc(O)c(O)c3)[nH]c2c1 [9 o, 2‐(3,4‐dihydroxyphenyl)‐N‐(pyridin‐2‐yl)‐1H‐benzo[d]imidazole‐6‐sulfonamide] | not tolerated | – |
| O=S(=O)(Nc1ccccn1)c1ccc2nc(-c3ccc(O)cc3O)[nH]c2c1 [9 p, 2‐(2,4‐dihydroxyphenyl)‐N‐(pyridin‐2‐yl)‐1H‐benzo[d]imidazole‐6‐sulfonamide] | active but non‐selective | – |
| COCC(COC)n1c(-c2cc(C)c(=O)n(C)c2)nc2cc(N3CCOCC3)ccc21 [Compound 8, I‐BET469] | – | Selectivity for BD1 over BD2 of BRD2, BRD3 and BRD4 (BD1 of BRD4): 20 fold; pIC50 on BD1 of BRD4 (BD1 of BRD4): 7.9 |
| CC(C)NCC(O)COc1cccc2ccccc12 (stereo not shown) [propranolol] | – | Papp at 24 h, 0.2 mM (in vitro): 1.91 ×10⁻⁶ cm/s |
